Assays:
[1] = test system: HCT-116; assay: Growth inhibition of human HCT116 cells at 1 mg/mL after 48 hrs by MTT assay; assay type: functional; conditions: HCT-116, 48 h, read-out: GI
[2] = Cytotoxicity against mouse spleen lymphocytes assessed as cell viability at 1 mg/mL after 48 hrs by MTT assay relative to control; assay type: tissue-based, Lymphocyte; conditions: read-out: Activity

| Structure (SMILES) | inhibition of growth at 1000 µg/mL [1] [%] | viability at 48 h, 1 mg/mL [2] [%] |
| --- | --- | --- |
| Cc1ccc(C2SCC(=O)Nc3ccc4[nH]ncc4c32)cc1 (configuration not stated) | 66.8 | 20.5 |
| Cc1ccc(C2SCC(=O)Nc3onc(C)c32)cc1 (configuration not stated) | 64.7 | 103 |
| Cc1nn(-c2ccccc2)c2c1C(c1cccc([N+](=O)[O-])c1)SCC(=O)N2 (configuration not stated) | 54.3 | 154 |
| COc1cc(C2SCC(=O)Nc3ccc4[nH]ncc4c32)cc(OC)c1OC (configuration not stated) | 58.2 | 166 |
| Cc1noc2c1C(c1cccs1)SCC(=O)N2 (configuration not stated) | 62.6 | 160 |
| COc1ccc(C2SCC(=O)Nc3c2c(C)nn3-c2ccccc2)cc1 (configuration not stated) | 57.8 | 78.8 |
| Cc1nn(-c2ccccc2)c2c1C(c1ccc(Cl)cc1Cl)SCC(=O)N2 (configuration not stated) | 53.3 | 156 |
| Cc1nn(-c2ccccc2)c2c1C(c1ccc(Cl)cc1)SCC(=O)N2 (configuration not stated) | 50.2 | 82.3 |
| COc1ccc(C2SCC(=O)Nc3ccc4[nH]ncc4c32)cc1 (configuration not stated) | 61.8 | 44.8 |
| CCn1c2ccccc2c2c3c(ccc21)NC(=O)CSC3c1ccc(OC)cc1 (configuration not stated) | 58.9 | 51.4 |
| CCn1c2ccccc2c2c3c(ccc21)NC(=O)CSC3c1ccc2c(c1)OCO2 (configuration not stated) | 51.6 | 158 |
| CCn1c2ccccc2c2c3c(ccc21)NC(=O)CSC3c1ccc(Br)cc1 (configuration not stated) | 62 | 136 |
| Cc1noc2c1C(c1ccccc1Cl)SCC(=O)N2 (configuration not stated) | 54.6 | 170 |
| Cc1noc2c1C(c1ccc3c(c1)OCO3)SCC(=O)N2 (configuration not stated) | 50.4 | 87.2 |
| COc1ccc(C2SCC(=O)Nc3onc(C)c32)cc1 (configuration not stated) | 60.3 | 165 |
| CCn1c2ccccc2c2c3c(ccc21)NC(=O)CSC3c1ccc(C)cc1 (configuration not stated) | 53.4 | 93.2 |
| O=C1CSC(c2ccc(Cl)cc2)c2c(ccc3[nH]ncc23)N1 (configuration not stated) | 60.9 | 67.9 |
| Cc1ccc(C2SCC(=O)Nc3c2c(C)nn3-c2ccccc2)cc1 (configuration not stated) | 58.4 | 25.7 |
| Cc1noc2c1C(c1ccc(Br)cc1)SCC(=O)N2 (configuration not stated) | 63 | 157 |
| COc1ccc(C2SCC(=O)Nc3onc(C)c32)cc1OC (configuration not stated) | 54.6 | 165 |
| CCn1c2ccccc2c2c3c(ccc21)NC(=O)CSC3c1ccc(OC)c(OC)c1 (configuration not stated) | 56.2 | 101 |
| O=C1CSC(c2ccc3c(c2)OCO3)c2c(ccc3[nH]ccc23)N1 (configuration not stated) | 55.9 | 155 |
| Cc1nn(-c2ccccc2)c2c1C(c1ccc3c(c1)OCO3)SCC(=O)N2 (configuration not stated) | 51.3 | 66.9 |
| Cc1nn(-c2ccccc2)c2c1C(c1ccccc1Cl)SCC(=O)N2 (configuration not stated) | 55.3 | 68.7 |
| O=C1CSC(c2ccc(Br)cc2)c2c(ccc3[nH]ncc23)N1 (configuration not stated) | 63.4 | 42.6 |
| CCn1c2ccccc2c2c3c(ccc21)NC(=O)CSC3c1cccs1 (configuration not stated) | 60.3 | 45 |

Source: ChEMBL document CHEMBL1933012, “Design and diversity-oriented synthesis of novel 1,4-thiazepan-3-ones fused with bioactive heterocyclic skeletons and evaluation of their antioxidant and cytotoxic activities” (Bioorg Med Chem Lett, 2012)
